What was measured:
[1] = test system: TNF-α secretion by LPS-treated THP1 cells; assay: Lipopolysaccharide-activated THP1 cell TNF production assay; type: cell-based; settings: Homo sapiens, THP-1; LPS, 3 hours, THP1 cells; read-out: IC50 in the THP-1 cellular TNF production assay
Protocol: Lipopolysaccharide-Activated THP1 Cell TNF Production Assay
THP1 cells were resuspended in fresh THP1 media (RPMI 1640, 10% heat-inactivated FBS, 1×PGS, 1×NEAA, plus 30 μM βME) at a concentration of 1.5×10^6 cells per mL. One hundred microliters of cells per well were plated in a polystyrene 96-well tissue culture plate. 1.5 micrograms per mL of bacterial LPS was prepared in THP1 media and transferred to the first 11 columns of a 96-well polypropylene plate. Column 12 contained only THP1 media for the LO control. Compounds were dissolved in 100% DMSO and serially diluted 3 fold in a polypropylene 96-well microtiter plate (drug plate). Columns 6 and 12 were reserved as controls (HI controls and LO controls respectively) and contained only DMSO. 10 μL of LPS followed by one microliter of inhibitor compound from the drug plate was transferred to the cell plate. The treated cells were induced to synthesize and secrete TNF-α in a 37° C. humidified incubator with 5% CO2 for 3 hours. Fifty microliters of conditioned media was transferred to a 96-well MULTI-ARRAY™ 96-well small spot plate—custom coated with MAB610 containing 100 μL of 2× Read Buffer P supplemented with 0.34 nM AF210NA polyclonal Ab labeled with ruthenium (MSD-Sulfo-TAG™-NHS ester). After an overnight incubation at room temperature with shaking, the reaction was read on the Sector Imager™ 6000. […] The amount of secreted TNF-α in the presence of AMG compounds compared with that in the presence of DMSO vehicle alone (HI control) was calculated using the formula: % control (POC)=(cpd−average LO)/(average HI−averageLO)*100. Data (consisting of POC and inhibitor concentration in μM) was fitted to a 4-parameter equation (y=A+((B−A)/(1+((x/C)^D))), where A is the minimum y (POC) value, B is the maximum y (POC), C is the x (cpd concentration) at the point of inflection and D is the slope factor) using a Levenburg-Marquardt non-linear regression algorithm.

[2] = test system: production of IL-1β, IL-6, and TNF-α by PBMC activated with LPS; assay: Lipopolysaccharide-activated PBMC cytokine production assay; type: cell-based; settings: LPS 100 ng/mL, 18 hours, IL-1β, IL-6, TNF-α, read-out: IC50 in the whole blood PMBC assay
Protocol: Lipopolysaccharide-Activated PBMC Cytokine Production Assay
Test compounds were evaluated in vitro for the ability to inhibit the production of IL-1β, IL-6, and TNF-α by PBMC activated with bacterial lipopolysaccharide (LPS). Fresh leukocytes were obtained from a local blood bank, and peripheral blood mononuclear cells (PBMCs) were isolated by density gradient centrifugation on Ficol-Paque Plus (Pharmacia).
Preparation of Test Compound Stock Solutions
All reagents were prepared in RPMI 1640+10% v/v human AB serum+1×Pens/Strep/Glu (assay medium). Test compounds were dissolved in 100% DMSO and serially diluted in 96-well polypropylene round bottom micro titer plates (drug plate). Serial dilutions were then diluted 1:250 into assay medium to a 4× working concentration. Compound serial dilutions were half-log, 10 point titrations with a final starting concentration of 1 μM.
Treatment of Cells with Test Compounds and Activation with Lipopolysaccharide
LPS was prepared to a 4× concentration in assay medium. 100 μl of PBMC (1×10^6 cells/ml) were plated in a 96-well polystyrene flat bottom micro titer tissue culture plate and incubated with 50 μl of 4× compound serial dilution for 1 hour at 37° C., 5% CO2 in a tissue culture incubator. 50 μl 4×LPS or control was added and the plates were incubated at 37° C., 5% CO2 in a tissue culture incubator for 18 hours. The final DMSO concentration was 0.1%. The total volume was 200 μL. The final LPS concentration was 100 ng/mL. After 18 hours culture supernatants were removed and IL-1β, IL-6, and TNF-α presence in the supernatants was quantified using MSD ECL based technology.
Cytokine Measurements 20 μL of culture supernatant were added to MSD plates, and incubated for one hour at room temperature. 20 μL of detection antibody diluted in antibody diluent (1 μg/mL), and 110 μL of 2× Read Buffer P was added, and incubated for one hour at RT. Electrochemiluminescence was measured using the SECTOR HTS Imager (MSD, Gaithersburg, Md.). Data Analysis
Compound IC50 values were calculated as follows: The proportion of cytokine production in the presence of compound compared to the cytokine production in the presence of the DMSO vehicle alone (Hi control) was calculated using the formula: Percent Control (POC)=(compound−average Lo)/(average Hi−average Lo)*100.

recombinant human p38α = recombinant human p38α (Homo sapiens, UniProt Q16539); assay: Purified and activated recombinant human p38α HTRF kinase assay; type: biochemical; settings: 1 nM p38α, 50 μM ATP, GST-ATF2 substrate, read-out: p38a IC50
Protocol: Purified and Activated Recombinant Human p38α Assay
• Kinase Reaction Buffer: Kinase reaction buffer for p38α HTRF assays consists of 50 mM Tris-pH 7.5, 5 mM MgCl2, 0.1 mg/mL BSA, 100 μM Na3VO4 and 0.5 mM DTT. • HTRF Detection Buffer: HTRF detection buffer contains 100 mM HEPES-pH 7.5, 100 mM NaCl, 0.1% BSA, 0.05% Tween-20, and 10 mM EDTA. • Serial Dilution of Compounds: Compounds were dissolved in 100% DMSO and serially diluted (3 fold, 10 point) in a polypropylene 96-well microtiter plate (drug plate). The final starting concentration of compounds in the p38α enzymatic assays was 1 μM. Columns 6 and 12 (HI controls and LO controls respectively) in the drug plate were reserved as controls and contained only DMSO. • Kinase Reaction The p38α kinase reactions were carried out in a polypropylene 96-well black round bottom assay plate in total volume of 30 μL kinase reaction buffer. Appropriate concentration of purified and activated enzyme (recombinant human) was mixed with indicated concentration of ATP and 100 nM GST-ATF2-Avitag, in the presence or absence (HI control) of Compound. See table below for actual concentrations. In the absence of substrate, the background was measured as LO control. The reaction was allowed to incubate for 1 hour at RT. • Assay Reagent Concentrations: The final reagent concentrations were 1 nM p38α and 50 μM ATP. […] After 60 minutes incubation at room temperature, the assay plate was read in a Discovery Plate Reader. The wells were excited with coherent 320 nm light and the ratio of delayed ([…] post excitation) emissions at […] (native europium fluorescence) and 665 nm (europium fluorescence transferred to allophycocyanin—an index of substrate phosphorylation) was determined (Park et al, 1999). • Data Analysis: The proportion of substrate phosphorylated in the kinase reaction in the presence of compound compared with that phosphorylated in the presence of DMSO vehicle alone (HI control) was calculated using the formula: % control (POC)=(compound−average LO)/(average HI−average LO)*100. Data (consisting of POC and inhibitor concentration in μM) was fitted to a 4-parameter equation (y=A+((B−A)/(1+((x/C)^D))), where A is the minimum y (POC) value, B is the maximum y (POC), C is the x (compound concentration) at the point of inflection and D is the slope factor, using a Levenburg-Marquardt non-linear regression algorithm.
The inhibition constant (Ki) of the inhibitor was estimated from the IC50 (compound concentration at the point of inflection C) using the Cheng-Prussof equation: Ki=IC50/(1+S/Km), where S is the ATP substrate concentration, and Km is the Michaelis constant for ATP as determined experimentally. All results were expressed as the mean±the standard error of the mean. Data acquisition and non-linear regression algorithms were performed using Activity Base v5.2 and XL-fit software v4.1 respectively. All data was archived using Activity Base v5.2 software.

[3] = test system: secreted IL-8 by whole blood activated with TNF-α; assay: Inhibition of TNF-α induced IL-8 in 50% human whole blood; type: cell-based; settings: Homo sapiens, TNF-α (1 nM) induced IL-8, 50% human whole blood; read-out: WB TNF/IL8 IC50
Protocol: Inhibition of TNF-α Induced IL-8 in 50% Human Whole Blood
Test compounds were evaluated in vitro for the ability to inhibit the production of secreted IL-8 by whole blood activated with TNF-α. Fresh human whole blood was obtained from healthy, non-medicated volunteers in sodium heparin tubes.
Compound Dilution—Assay Procedure
100 ul heparinized whole blood is plated into wells of 96 well flat bottom plates. 50 ul of either 4× compound or DMSO control (Final DMSO concentration is 0.1%) are added to the appropriate wells. Plates are incubated for 1 hour at 37 degrees Celsius. 50 ul of 4×TNF-α ([…], for a final concentration of 1 nM) or control (media alone) is added to the appropriate wells (Total volume=200 ul). Plates are incubated overnight (16-18 hours). 100 ul of supernatant is collected and stored in 96-well round bottom polypropylene plates at −80 degrees Celsius or assayed immediately for IL-8.
Cytokines are measured on antibody (Ab) sandwich ECL based 96-well detection plates. 20 ul of supernatant are added to plate and plate is sealed and shaken at RT for 1 hour. 130 ul of detection Ab cocktail is added and plates are sealed and shaken for 1 hour in the dark at RT. Plates are read on MSD Sector HTS instrument. Data are analyzed and IC50 values generated using Activity Base and XI-fit programs.

recombinant human p38α, sequence (Q16539 whole entry): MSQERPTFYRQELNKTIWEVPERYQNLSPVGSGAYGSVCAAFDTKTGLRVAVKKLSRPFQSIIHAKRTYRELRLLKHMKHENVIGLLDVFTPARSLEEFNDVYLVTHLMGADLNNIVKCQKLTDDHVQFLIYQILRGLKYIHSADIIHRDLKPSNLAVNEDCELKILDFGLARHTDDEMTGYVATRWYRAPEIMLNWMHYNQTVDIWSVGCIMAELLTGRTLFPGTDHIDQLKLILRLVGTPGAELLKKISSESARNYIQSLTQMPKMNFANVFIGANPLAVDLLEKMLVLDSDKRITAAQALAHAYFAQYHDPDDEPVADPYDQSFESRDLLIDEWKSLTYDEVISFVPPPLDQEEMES

| Structure (SMILES) | IC50 [1] [nM] | IC50 [2] [nM] | IC50 (recombinant human p38α) [nM] | IC50 [3] [nM] |
| --- | --- | --- | --- | --- |
| Cc1c(F)cc(C(=O)NC2CC2)cc1-c1cc2cnn(-c3c(F)cccc3F)c2n(C)c1=O [Example 2, N-cyclopropyl-3-(1-(2,6-difluorophenyl)-7-methyl-6-oxo-6,7-dihydro-1H-pyrazolo[3,4-b]pyridin-5-yl)-5-fluoro-4-methylbenzamide] | ≤ 175 | ≤ 125 | 1.8 | – |
| Cc1c(F)cc(C(=O)Nc2ccon2)cc1-c1cc2cnn(-c3c(F)cccc3F)c2n(C)c1=O [Example 3, 3-(1-(2,6-difluorophenyl)-7-methyl-6-oxo-6,7-dihydro-1H-pyrazolo[3,4-b]pyridin-5-yl)-5-fluoro-N-3-isoxazolyl-4-methylbenzamide] | ≤ 175 | ≤ 125 | 2.4 | – |
| Cc1c(F)cc(C(=O)NC2CC2)cc1-c1cc2cnn(-c3ccccc3Cl)c2n(C)c1=O [Example 8, 3-(1-(2-chlorophenyl)-7-methyl-6-oxo-6,7-dihydro-1H-pyrazolo[3,4-b]pyridin-5-yl)-N-cyclopropyl-5-fluoro-4-methylbenzamide] | ≤ 175 | ≤ 125 | 2.3 | – |
| Cc1ccc(C(=O)NC2CC2)cc1-c1cc2cnn(-c3ccccc3Cl)c2n(C)c1=O [Example 12, 3-(1-(2-chlorophenyl)-7-methyl-6-oxo-6,7-dihydro-1H-pyrazolo[3,4-b]pyridin-5-yl)-N-cyclopropyl-4-methylbenzamide] | ≤ 175 | ≤ 125 | 1.8 | – |
| Cc1ccc(C(=O)Nc2ccon2)cc1-c1cc2cnn(-c3ccc(F)cc3F)c2n(C)c1=O [Example 27, 3-(1-(2,4-difluorophenyl)-7-methyl-6-oxo-6,7-dihydro-1H-pyrazolo[3,4-b]pyridin-5-yl)-N-3-isoxazolyl-4-methylbenzamide] | ≤ 175 | ≤ 125 | 2.4 | – |
| Cc1c(F)cc(C(N)=O)cc1-c1cc2cnn(-c3c(F)cccc3F)c2n(C)c1=O [Example 31, 3-(1-(2,6-difluorophenyl)-7-methyl-6-oxo-6,7-dihydro-1H-pyrazolo[3,4-b]pyridin-5-yl)-5-fluoro-4-methylbenzamide] | ≤ 175 | ≤ 125 | 1 | – |
| Cc1ccc(C(=O)O)cc1-c1cc2cnn(-c3c(F)cccc3F)c2n(C)c1=O [Example 38, 3-(1-(2,6-difluorophenyl)-7-methyl-6-oxo-6,7-dihydro-1H-pyrazolo[3,4-b]pyridin-5-yl)-4-methylbenzoic acid] | – | – | 704 | ≥ 2500 |
| Cc1ccc(C(=O)O)cc1-c1cc2cnn(-c3ccc(F)cc3F)c2n(C)c1=O [Example 41, 3-(1-(2,4-difluorophenyl)-7-methyl-6-oxo-6,7-dihydro-1H-pyrazolo[3,4-b]pyridin-5-yl)-4-methylbenzoic acid] | ≤ 175 | – | 1000 | ≥ 2500 |
| COc1ccc(C(F)(F)F)cc1NC(=O)c1ccc(C)c(-c2cc3cnn(-c4c(F)cccc4F)c3n(C)c2=O)c1 [Example 45, 3-(1-(2,6-difluorophenyl)-7-methyl-6-oxo-6,7-dihydro-1H-pyrazolo[3,4-b]pyridin-5-yl)-4-methyl-N-(2-(methyloxy)-5-(trifluoromethyl)phenyl)benzamide] | ≤ 175 | – | 7.8 | ≥ 2500 |
